Broadly, the IC50 is the point on the concentration scale where inhibition reaches its midpoint.

Entries after “also recorded” stand apart in the source; their conditions may differ. Read-outs that look alike come from different tables or passages of the source.

We go through 10 molecules from article PMC9814340, “CDK8/19 inhibition plays an important role in pancreatic β-cell induction from human iPSCs” (Stem Cell Research & Therapy, 2023).

Data set [1] concerns Salmonella typhimurium TA1537. From the text:
(§1) Salmonella typhimurium TA100, TA1535, TA98, and TA1537, and Escherichia coli WP2uvrA were used to detect either frameshift mutations (TA98 and TA1537) or base pair substitutions (TA100, TA1535, and WP2uvrA). These strains are widely used and recommended for use in ICH S2(R1) for the bacterial reversion assay.
(§2) In the current study, rat liver S9 fraction, […], was not included because the mutagenicity of compounds should be assessed when simulating cell cultures but not in vivo after metabolism by liver enzymes. Briefly, each tester strain was mixed with seven concentrations (78.1–5000 μg/plate) of each compound and preincubated for 20 min in test tubes. Two plates per dose for the tested compounds and positive control group, and four plates per dose for the negative control group were used. Dimethyl sulfoxide (FUJIFILM Wako) was selected as solvent for the tested compounds and used as negative control. […] Following preincubation, semisolid top agar was added to the tubes, and then, the mixtures were overlaid on minimal glucose agar plates. After the overlaid agar solidified, the plates were stored at 37 °C in an incubator for 48 h.
(§3) Cultures were examined for signs of compound precipitation and other abnormal conditions by eye. Subsequently, cytotoxicity (decreased background lawn) was assessed using a stereomicroscope. The number of revertant colonies on the plates was counted using an automatic colony analyzer (CA-11, System Science Co., Ltd., Tokyo, Japan) or manually when counting by the automatic colony analyzer was inappropriate, e.g., when precipitation was observed.

For data set [2], the system named is β-cells (INS+NKX6.1+) differentiated from human iPSC line Ff-I14-s04. Kind of data set: β-cell induction in iPIC differentiation from hiPSCs (compound at stages 5-7), flow cytometry. Format: cell-based. Particulars: for proportion of β-cells (INS+NKX6.1+), representative dot plot: Fig. 3a. The protocol: For differentiation culture to generate iPICs, we used 2D monolayer to static aggregate culture based on our previous report and 3D stirred-floating aggregate culture. The details of the typical 3D floating culture were as follows.
PD-166866 (1 μM, Merck Millipore) was added from day 4 of stage 6.
Stage 7 medium was based on a previous report with our original modifications. […] To generate iPICs for implantation, cells were dissociated and re-sized in an Elplasia 6-well microwell plate (Corning Incorporated, Corning, NY, USA) or a gas-permeable microwell culture bag (Toyo Seikan Group Holdings, Ltd., Yokohama, Japan) and cultured in the stage 7 medium.
The differentiation efficiency of β-cells (INS^+NKX6.1^+) and endocrine cells (CHGA^+) was analyzed using immunostaining methods and flow cytometry on an LSRFortessa X20 instrument (BD Corporation, Franklin Lakes, NJ, USA), as described previously. The primary antibodies used are detailed in Additional file 1: Table S1. Secondary antibodies were conjugated to Alexa Fluor 488, 546, 568, and 647 of the appropriate species (Thermo Fisher Scientific or Jackson ImmunoResearch, West Grove, PA, USA).
(A flow cytometer gives signals particle by particle.)

Data set [3] concerns Salmonella typhimurium TA100, TA1535, TA98, and TA1537, and Escherichia coli WP2uvrA. Briefly: Ames mutagenicity assay (bacterial reverse mutation test), five strains, absence of rat liver S9. Particulars: for Ames Mutagenicity: result in words, absence of rat liver S9, 78.1-5000 μg/plate.
Description: as §1, §2, §3
(The Ames test detects mutagens through reverse mutation in bacteria.)

In data set [4] the target is CDK19 (Homo sapiens, UniProt Q9BWU1). Kind of data set: biochemical. The protocol:
(§4) Briefly, BODIPY-FL- or Cy5-FL-conjugated staurosporine derivative that binds to a highly conserved ATP-binding pocket in kinases was used as a fluorescent probe and tested compounds were applied at 0.1 and 1 μM in competitive binding assays for ~ 350 recombinant protein kinases. TR-FRET fluorescent signals from terbium and BODIPY/Cy5-FL were measured using an EnVision plate reader (PerkinElmer, Waltham, MA, USA), and pIC50 values were extrapolated from the inhibition rate.

In data set [5] the target is TNIK (Homo sapiens, UniProt Q9UKE5). Kind of data set: biochemical. As to the method: as §4
TNIK, sequence (Q9UKE5 whole entry, species assumed): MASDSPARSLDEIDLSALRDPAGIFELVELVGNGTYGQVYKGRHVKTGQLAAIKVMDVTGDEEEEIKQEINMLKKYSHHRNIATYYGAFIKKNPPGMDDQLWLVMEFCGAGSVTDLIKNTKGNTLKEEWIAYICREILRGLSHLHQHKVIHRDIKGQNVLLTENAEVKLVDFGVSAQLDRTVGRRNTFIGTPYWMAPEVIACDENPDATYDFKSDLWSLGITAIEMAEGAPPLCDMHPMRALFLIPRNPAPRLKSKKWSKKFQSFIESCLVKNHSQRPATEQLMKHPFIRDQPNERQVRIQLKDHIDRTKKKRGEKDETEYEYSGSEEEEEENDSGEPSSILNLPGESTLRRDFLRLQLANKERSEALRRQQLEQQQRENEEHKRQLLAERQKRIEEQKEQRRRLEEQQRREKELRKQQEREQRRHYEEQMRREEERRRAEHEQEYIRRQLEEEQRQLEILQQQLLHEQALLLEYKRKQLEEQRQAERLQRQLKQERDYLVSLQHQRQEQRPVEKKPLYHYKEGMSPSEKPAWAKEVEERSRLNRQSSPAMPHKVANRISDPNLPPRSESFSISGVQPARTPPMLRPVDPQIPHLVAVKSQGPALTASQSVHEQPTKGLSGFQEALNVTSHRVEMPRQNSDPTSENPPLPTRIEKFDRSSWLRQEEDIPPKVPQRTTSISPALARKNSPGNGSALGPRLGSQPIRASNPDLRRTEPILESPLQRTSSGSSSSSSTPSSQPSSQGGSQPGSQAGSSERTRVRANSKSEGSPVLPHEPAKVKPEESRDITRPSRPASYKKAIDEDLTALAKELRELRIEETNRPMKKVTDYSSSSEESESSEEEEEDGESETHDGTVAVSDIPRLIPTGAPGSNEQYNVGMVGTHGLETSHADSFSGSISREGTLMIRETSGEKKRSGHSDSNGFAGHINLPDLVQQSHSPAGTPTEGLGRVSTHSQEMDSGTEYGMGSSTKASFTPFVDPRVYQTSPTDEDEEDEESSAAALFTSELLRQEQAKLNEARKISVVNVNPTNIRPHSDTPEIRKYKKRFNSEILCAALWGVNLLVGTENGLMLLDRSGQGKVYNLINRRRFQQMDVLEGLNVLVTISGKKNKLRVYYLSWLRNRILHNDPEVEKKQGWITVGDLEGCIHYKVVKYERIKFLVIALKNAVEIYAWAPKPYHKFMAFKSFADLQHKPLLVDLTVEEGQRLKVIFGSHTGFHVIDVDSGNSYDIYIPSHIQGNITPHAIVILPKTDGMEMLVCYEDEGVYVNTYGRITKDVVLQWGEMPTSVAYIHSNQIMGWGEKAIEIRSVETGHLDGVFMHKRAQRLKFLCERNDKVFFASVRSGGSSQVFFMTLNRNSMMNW
The target of data set [6] is RIPK2 (Homo sapiens, UniProt O43353). Briefly: biochemical. The protocol: as §4
RIPK2, sequence (O43353 whole entry, species assumed): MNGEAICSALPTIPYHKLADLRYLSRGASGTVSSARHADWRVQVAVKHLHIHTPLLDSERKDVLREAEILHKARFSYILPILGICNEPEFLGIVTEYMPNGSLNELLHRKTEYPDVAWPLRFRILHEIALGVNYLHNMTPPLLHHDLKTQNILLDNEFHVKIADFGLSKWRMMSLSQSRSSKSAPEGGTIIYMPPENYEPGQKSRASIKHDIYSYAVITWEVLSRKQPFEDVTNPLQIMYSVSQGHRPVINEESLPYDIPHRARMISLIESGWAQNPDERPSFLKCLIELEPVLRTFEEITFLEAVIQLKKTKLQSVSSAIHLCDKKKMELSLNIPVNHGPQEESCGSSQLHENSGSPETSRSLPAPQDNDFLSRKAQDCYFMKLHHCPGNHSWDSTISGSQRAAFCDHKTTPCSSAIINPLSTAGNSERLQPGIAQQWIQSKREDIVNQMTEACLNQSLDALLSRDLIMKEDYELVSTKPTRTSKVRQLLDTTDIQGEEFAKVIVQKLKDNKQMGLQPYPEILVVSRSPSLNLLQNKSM
Data set [7] addresses TGFBR2 (Homo sapiens, UniProt P37173). Kind of data set: biochemical. As to the method: as §4
For data set [8], the target named is T1, CDK8 (Homo sapiens, UniProt P49336). Briefly: biochemical. As to the method: as §4
T1 sequence (P49336 whole entry, species assumed): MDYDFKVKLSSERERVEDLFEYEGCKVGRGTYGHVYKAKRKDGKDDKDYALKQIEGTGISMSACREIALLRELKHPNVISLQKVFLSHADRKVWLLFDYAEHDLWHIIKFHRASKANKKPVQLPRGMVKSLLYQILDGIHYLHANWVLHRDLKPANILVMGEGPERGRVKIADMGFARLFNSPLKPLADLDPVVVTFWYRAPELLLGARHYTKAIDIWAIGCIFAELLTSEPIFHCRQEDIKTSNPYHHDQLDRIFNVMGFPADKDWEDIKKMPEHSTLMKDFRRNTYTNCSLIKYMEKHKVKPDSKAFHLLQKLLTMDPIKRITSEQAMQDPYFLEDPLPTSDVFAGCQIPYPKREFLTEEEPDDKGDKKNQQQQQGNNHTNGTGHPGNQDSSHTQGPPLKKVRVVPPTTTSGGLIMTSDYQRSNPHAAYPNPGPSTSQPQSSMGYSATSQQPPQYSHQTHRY
T1 sequence (P24863 whole entry partner, species assumed): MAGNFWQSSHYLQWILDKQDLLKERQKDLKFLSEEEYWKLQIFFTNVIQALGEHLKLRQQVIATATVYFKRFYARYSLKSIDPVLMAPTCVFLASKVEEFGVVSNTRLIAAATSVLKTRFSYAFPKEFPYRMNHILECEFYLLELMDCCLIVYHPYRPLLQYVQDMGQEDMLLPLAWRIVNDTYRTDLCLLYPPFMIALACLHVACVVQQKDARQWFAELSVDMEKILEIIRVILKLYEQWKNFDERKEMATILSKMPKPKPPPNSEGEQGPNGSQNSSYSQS
The target in data set [9] is T2, ALK5 (Homo sapiens, UniProt P36897).
T2 construct: Axcelead Drug Discovery Partners (ran the assay)
T2 sequence (P36897 34-503): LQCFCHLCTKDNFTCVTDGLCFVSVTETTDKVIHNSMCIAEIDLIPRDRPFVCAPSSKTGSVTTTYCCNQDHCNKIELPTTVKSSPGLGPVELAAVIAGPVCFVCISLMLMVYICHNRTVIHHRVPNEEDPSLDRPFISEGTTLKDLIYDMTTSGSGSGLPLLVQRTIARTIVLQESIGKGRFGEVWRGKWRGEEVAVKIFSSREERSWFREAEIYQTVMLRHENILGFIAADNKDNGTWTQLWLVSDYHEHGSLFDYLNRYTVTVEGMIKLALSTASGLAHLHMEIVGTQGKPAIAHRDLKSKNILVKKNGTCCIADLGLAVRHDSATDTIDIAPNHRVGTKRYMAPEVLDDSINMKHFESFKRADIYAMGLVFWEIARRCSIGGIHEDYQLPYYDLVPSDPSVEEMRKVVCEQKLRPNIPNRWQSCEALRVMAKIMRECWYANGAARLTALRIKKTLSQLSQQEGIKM
Briefly: TR-FRET-based competitive binding kinase profiling assay. Particulars: Yes/No summary of Fig. 1d; method not given. (TR-FRET usually uses a lanthanide donor and a delayed reading to cut background.)

Data set [10] deals with T1, CDK8. Set-up: Axcelead Drug Discovery Partners (ran the assay); method as in PMID 28392276. Particulars: cited from earlier work.

CDK19, sequence (Q9BWU1 whole entry, species assumed): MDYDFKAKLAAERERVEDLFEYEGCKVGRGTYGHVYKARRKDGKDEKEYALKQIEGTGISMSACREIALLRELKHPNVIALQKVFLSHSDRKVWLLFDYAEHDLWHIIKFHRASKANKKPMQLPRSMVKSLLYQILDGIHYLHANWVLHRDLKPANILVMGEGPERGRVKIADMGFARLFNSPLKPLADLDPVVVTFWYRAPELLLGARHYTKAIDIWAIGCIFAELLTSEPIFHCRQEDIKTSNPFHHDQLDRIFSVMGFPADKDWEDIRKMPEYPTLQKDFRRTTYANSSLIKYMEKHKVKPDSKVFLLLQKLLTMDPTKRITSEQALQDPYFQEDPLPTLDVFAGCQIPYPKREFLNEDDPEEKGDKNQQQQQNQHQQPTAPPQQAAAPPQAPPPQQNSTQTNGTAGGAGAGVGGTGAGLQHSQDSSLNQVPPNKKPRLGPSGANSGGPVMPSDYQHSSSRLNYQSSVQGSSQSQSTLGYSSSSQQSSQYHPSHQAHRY
CDK19, sequence (P24863 whole entry partner, species assumed): as the sequence (P24863 whole entry partner, species assumed) above
TGFBR2, sequence (P37173 23-567, species assumed): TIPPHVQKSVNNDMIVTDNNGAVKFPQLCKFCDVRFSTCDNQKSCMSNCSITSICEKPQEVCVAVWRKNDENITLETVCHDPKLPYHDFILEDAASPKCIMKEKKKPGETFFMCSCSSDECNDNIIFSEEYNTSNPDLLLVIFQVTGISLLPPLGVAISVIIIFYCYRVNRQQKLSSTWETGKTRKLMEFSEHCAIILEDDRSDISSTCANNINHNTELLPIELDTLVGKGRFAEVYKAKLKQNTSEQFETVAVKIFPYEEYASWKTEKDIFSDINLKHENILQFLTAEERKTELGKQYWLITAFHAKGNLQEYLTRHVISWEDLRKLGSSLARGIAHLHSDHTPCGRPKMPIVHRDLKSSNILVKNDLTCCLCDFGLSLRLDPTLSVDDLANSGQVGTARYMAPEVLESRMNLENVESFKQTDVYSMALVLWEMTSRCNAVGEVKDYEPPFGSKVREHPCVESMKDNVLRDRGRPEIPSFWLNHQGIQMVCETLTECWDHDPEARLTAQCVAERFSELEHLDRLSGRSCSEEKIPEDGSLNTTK

On to `Cl.Nc1c2ccccc2nc2ccccc12.O` [9-AA, 9-aminoacridine hydrochloride monohydrate], for which the “TA1537, -S9 # colony” value in data set [1] (positive control, 80 μg) amounted to 169.

As to `Cc1cccc(-c2n[nH]cc2-c2ccc3ncccc3n2)n1` [ALK5iII], in [2] (10 μM ALK5iII at stages 5-7), the “proportion of β-cells (INS+NKX6.1+), representative dot plot” value (“proportion of β-cells (INS+NKX6.1+)” below) is on record as 35.0%. Moreover, the Ames mutagenicity test entry in [3] (Fig. 1b flowchart, absence of S9, positive = mean revertant colonies at least twofold the negative control in any strain) is given as “(+)”. Also, the “Ames Mutagenicity” value in data set [3] is listed as “Positive”. Moreover, the “Ames response in the TA1537 strain” value in [1] is “positive response”. Besides, the “TA1537, -S9 # colony” value in [1] (Salmonella typhimurium) is listed as 8. Further, the IC50 in [4] was 66.1 nM; in data set [5], 661 nM; in data set [6], 151 nM; in data set [7] it was 107 nM; in [8] it was 158 nM. For the same molecule, the ALK5 inhibition result in data set [9] was “Yes”.

As to `CN(C)C(=O)Cn1cc(-c2ccc(-c3cncc4ccccc34)cc2)cn1` [BI-1347], the “proportion of β-cells (INS+NKX6.1+)” value in data set [2] (3 nM, instead of ALK5iII, stages 5-7) is on record as 39.8%.

Consider `COc1ccc2nc3cc(Cl)ccc3c(NCCCNCCCl)c2c1.Cl.Cl` [ICR, [6-Chloro-9-(3-[2-chloroethylamino]propylamino)-2-methoxyacridine] dihydrochloride], for which, in data set [1] (positive control, 1.0 μg), the “TA1537, -S9 # colony” value stood at 1804.

`NC(=O)c1ccc(-c2nc(-c3ccc4c(c3)OCO4)c(-c3ccccn3)[nH]2)cc1` [SB431542]: the “Ames Mutagenicity” value in data set [3] is listed as “did not have mutagenic potential; also recorded: negative”.

Consider `Cc1cccc(-c2[nH]c(C(C)(C)C)nc2-c2ccc3nccnc3c2)n1` [SB525334], for which, in data set [3], the “Ames Mutagenicity” value is recorded as “Negative; also recorded: did not have mutagenic potential”.

In the case of `CN1CCN(C(=O)c2ccc3cc(CCNc4ncnc5ccc(C#N)cc45)ccc3c2)CC1` [Senexin B], the “proportion of β-cells (INS+NKX6.1+)” value in [2] (0.1 μM, instead of ALK5iII, stages 5-7) was found to be 39.7%.

Regarding `c1cncc(-c2n[nH]cc2-c2cnc3ccccc3n2)c1` [TR04411299], the “Ames Mutagenicity” value in data set [3] is “positive result”. For the same molecule, the “TA1537, -S9 # colony” value in [1] (78.1 μg/plate, DMSO control 8 (ALK5 inhibitor II) / 9 (TR04411299)) is listed as 5; in [1] (156 μg/plate, DMSO control 8 / 9), 9; in data set [1] (313 μg/plate, DMSO control 8 / 9), 21; in data set [1] (625 μg/plate, DMSO control 8 / 9), 45; in data set [1] (1250 μg/plate, DMSO control 8 / 9), 82; in data set [1] (2500 μg/plate, DMSO control 8 / 9) it was 128. Besides, the “TA1537, -S9 # colony” value in data set [1] (5000 μg/plate, DMSO control 8 / 9) is recorded as 194. Also, the ALK5 inhibition result in [9] is “No and did not inhibit ALK5”.

Consider `Cn1cc(-c2ccnc(O)c2/C=C/C(=O)Nc2ccc(CN3CCOCC3)cc2)cn1` [TR05978156], for which the “β-cell induction / differentiation efficiency” value in data set [2] (result in words, compound replaces ALK5iII at stages 5-7) was “did not induce β-cells efficiently”. Moreover, in data set [10], the IC50 was above 10000 nM.

Turning to `O=C(/C=C/c1cnccc1-c1cnn(C2CC2)c1)Nc1ccc(CN2CCOCC2)cc1` [TR06096159], the IC50 in data set [10] was 6.4 nM.
